Conditions in all cases: banded MIC grade
Assay [1] relates to Aspergillus niger. Kind of assay: Minimum inhibitory concentration, YAG medium. In kind it is cell-based. The protocol:
(§1) The compound was dissolved in DMSO to give a solution containing 5 mg/mL. Tubes were stored at −20° C. until required. On the day of testing thawed solutions were vortex mixed to ensure homogeneity. 30 μL of solution was removed and added to 570 μL of sterile water in a separate sterile Eppendorf. The thoroughly mixed solution was used to prepare a series of doubling dilutions in water, in a deep well plate. Thirteen replicate plates were prepared using a Minitrak by aspirating 20 μL from each well into eleven clear polystyrene 96 well plates. Spores of Aspergillus spp. […] All plates were incubated for 24 hrs at 35° C. Growth was assessed by monitoring the optical density at 485 nm for each well. […] MICs are recorded as mg/L.

Assay [2] has as its system Aspergillus flavus. The assay can be described thus: Minimum inhibitory concentration, YAG medium. In kind it is cell-based. How it is done:
as §1

The subject of assay [3] is Aspergillus terreus. The assay can be described thus: Minimum inhibitory concentration, YAG medium. The format is cell-based. The protocol: as §1
The subject of assay [4] is A. terreus 49. The assay can be described thus: Minimum inhibitory concentration, YAG medium. The format is cell-based, Aspergillus terreus. The protocol:
as §1

The subject of assay [5] is A. fumigatus 210. The assay can be described thus: Minimum inhibitory concentration, YAG medium. The format is cell-based, Aspergillus fumigatus. The protocol:
(§2) Between 1 and 5 mgs of compound were accurately weighed out into a sterile Eppendorf tube. The compound was dissolved in DMSO to give a solution containing 5 mg/mL. Tubes were stored at −20° C. until required.
(§3) On the day of testing thawed solutions were vortex mixed to ensure homogeneity. 30 μL of solution was removed and added to 570 μL of sterile water in a separate sterile Eppendorf. The thoroughly mixed solution was used to prepare a series of doubling dilutions in water, in a deep well plate. Thirteen replicate plates were prepared using a Minitrak by aspirating 20 μL from each well into eleven clear polystyrene 96 well plates.
(§4) Spores of Aspergillus spp. (Aspergillus fumigatus [two strains], Aspergillus terreus [two strains], Aspergillus niger and Aspergillus flavus) were harvested from cultures grown on Sabarauds agar for 5 days, and resuspended in PBS/Tween 80 to approx 1×10^7 cfu/mL. Each organism suspension was diluted in YAG medium (1% glucose, 1% ammonium chloride and 0.5% yeast extract) to 0.5-2×10^4cfu/mL. 80 μL of an organism suspension was added to each well of the plate containing drug dilutions.
(§5) This typically produced MIC plates with a drug range 50-0.05 mg/L and organism inocula of 1-2×10^4 cfu/mL for Aspergillus spp. All plates were incubated for 24 hrs at 35° C. Growth was assessed by monitoring the optical density at 485 nm for each well. The MIC of a compound is the lowest drug concentration that inhibits growth of an organism by >70% compared with a drug free control. MICs are recorded as mg/L. In cases where the MIC of an organism is […] the MIC is repeated using a concentration range of 0.5-0.0005 mg/L.

Assay [6] relates to C. parapsilosis. The assay can be described thus: Minimum inhibitory concentration, RPMI medium. In kind it is cell-based. The protocol: as §1, with “Assays were also performed in RPMI medium (Roswell Park Memorial Media 1640). To perform MIC tests in this medium, dilutions” for “Spores”, “compounds are prepared in microtitre plates as described above.” for “Aspergillus spp.”, “24-48” for “24”, “The following organisms were tested: […]” for “MICs are recorded as mg/L.”

Assay [7] has as its system C. tropicalis. The assay can be described thus: Minimum inhibitory concentration, RPMI medium. The format is cell-based. The protocol:
as §1, with “Assays were also performed in RPMI medium (Roswell Park Memorial Media 1640). To perform MIC tests in this medium, dilutions” for “Spores”, “compounds are prepared in microtitre plates as described above.” for “Aspergillus spp.”, “24-48” for “24”, “The following organisms were tested: […]” for “MICs are recorded as mg/L.”

Assay [8] has as its system C. albicans. Kind of assay: Minimum inhibitory concentration, RPMI medium. The format is cell-based. How it is done:
as §1, with “Assays were also performed in RPMI medium (Roswell Park Memorial Media 1640). To perform MIC tests in this medium, dilutions” for “Spores”, “compounds are prepared in microtitre plates as described above.” for “Aspergillus spp.”, “24-48” for “24”, “The following organisms were tested: […]” for “MICs are recorded as mg/L.”

Assay [9] deals with Aspergillus fumigatus. Kind of assay: Minimum inhibitory concentration, YAG medium. The format is cell-based. How it is done: as §2, §3, §4, §5

For the compound `NC1=NN=C(CCOc2ccc(-c3ccccc3)cc2)CS1`, the “MIC grade, A. NIGER, YAG media” value in [1] was 2 (2: 1-5 mg/L). In addition, the “MIC grade, A. FLAVUS, YAG media” value in [2] is given as 2 (2: 1-5 mg/L). In addition, in assay [3], the “MIC grade, A. TERREUS, YAG media” value is listed as 2 (2: 1-5 mg/L). The “MIC grade, A. TERREUS 49, YAG media” value in [4] was 2 (2: 1-5 mg/L). In addition, the “MIC grade, A. FUMIGATUS 210, YAG media” value in [5] is recorded as 1 (1: ≥5 mg/L). Besides, the “MIC grade, C. PARAPSILOSIS, RPMI media” value in assay [6] is recorded as 1 (1: ≥20 mg/L). Further, in assay [7], the “MIC grade, C. TROPICALIS, RPMI media” value was 1 (1: ≥20 mg/L). Further, the “MIC grade, C. ALBICANS, RPMI media” value in assay [8] is listed as 1 (1: ≥20 mg/L). Also, the “MIC grade, A. FUMIGATUS, YAG media” value in assay [9] was 1 (1: ≥5 mg/L).

Turning to `COCCCCC1=NN=C(N)SC1`, the “MIC grade, A. NIGER, YAG media” value in assay [1] is 3 (3: 0.2-1 mg/L). The “MIC grade, A. FLAVUS, YAG media” value in assay [2] is 3 (3: 0.2-1 mg/L). Moreover, the “MIC grade, A. TERREUS, YAG media” value in assay [3] was 3 (3: 0.2-1 mg/L). The “MIC grade, A. TERREUS 49, YAG media” value in assay [4] is reported as 3 (3: 0.2-1 mg/L). Also, the “MIC grade, A. FUMIGATUS 210, YAG media” value in [5] is given as 4 (4: <0.2 mg/L). For the same compound, in assay [6], the “MIC grade, C. PARAPSILOSIS, RPMI media” value is 4 (4: <1 mg/L). The “MIC grade, C. TROPICALIS, RPMI media” value in assay [7] is 3 (3: 1-5 mg/L). Further, the “MIC grade, C. ALBICANS, RPMI media” value in [8] is reported as 3 (3: 1-5 mg/L). Further, the “MIC grade, A. FUMIGATUS, YAG media” value in [9] is listed as 3 (3: 0.2-1 mg/L).

On to `NC1=NN=C(CCCCOc2ccccc2)CS1`, for which the “MIC grade, A. NIGER, YAG media” value in assay [1] is 4 (4: <0.2 mg/L). For the same compound, in assay [2], the “MIC grade, A. FLAVUS, YAG media” value was 4 (4: <0.2 mg/L). Further, in assay [3], the “MIC grade, A. TERREUS, YAG media” value is recorded as 4 (4: <0.2 mg/L). Further, the “MIC grade, A. TERREUS 49, YAG media” value in [4] is on record as 4 (4: <0.2 mg/L). For the same compound, in assay [5], the “MIC grade, A. FUMIGATUS 210, YAG media” value is listed as 3 (3: 0.2-1 mg/L). In [6], the “MIC grade, C. PARAPSILOSIS, RPMI media” value is 4 (4: <1 mg/L). Further, in assay [7], the “MIC grade, C. TROPICALIS, RPMI media” value is on record as 3 (3: 1-5 mg/L). Besides, the “MIC grade, C. ALBICANS, RPMI media” value in assay [8] was 4 (4: <1 mg/L). In addition, the “MIC grade, A. FUMIGATUS, YAG media” value in [9] is 3 (3: 0.2-1 mg/L).

Turning to `COCC1=NN=C(N)SC1`, the “MIC grade, A. NIGER, YAG media” value in [1] is recorded as 2 (2: 1-5 mg/L). Moreover, the “MIC grade, A. FLAVUS, YAG media” value in [2] is 2 (2: 1-5 mg/L). For the same compound, in [3], the “MIC grade, A. TERREUS, YAG media” value is on record as 2 (2: 1-5 mg/L). In addition, the “MIC grade, A. TERREUS 49, YAG media” value in [4] was 2 (2: 1-5 mg/L). Further, in [5], the “MIC grade, A. FUMIGATUS 210, YAG media” value is 2 (2: 1-5 mg/L). The “MIC grade, C. PARAPSILOSIS, RPMI media” value in [6] was 2 (2: 5-20 mg/L). For the same compound, the “MIC grade, C. TROPICALIS, RPMI media” value in assay [7] was 2 (2: 5-20 mg/L). Besides, the “MIC grade, C. ALBICANS, RPMI media” value in assay [8] is reported as 2 (2: 5-20 mg/L). For the same compound, the “MIC grade, A. FUMIGATUS, YAG media” value in assay [9] was 2 (2: 1-5 mg/L).

With `NC1=NN=C(CCCCCC(=O)O)CS1`, the “MIC grade, A. NIGER, YAG media” value in assay [1] was 2 (2: 1-5 mg/L). Besides, the “MIC grade, A. FLAVUS, YAG media” value in assay [2] is listed as 2 (2: 1-5 mg/L). For the same compound, the “MIC grade, A. TERREUS, YAG media” value in assay [3] is listed as 2 (2: 1-5 mg/L). For the same compound, the “MIC grade, A. TERREUS 49, YAG media” value in assay [4] is 2 (2: 1-5 mg/L). Also, in assay [5], the “MIC grade, A. FUMIGATUS 210, YAG media” value is reported as 2 (2: 1-5 mg/L). Moreover, the “MIC grade, C. PARAPSILOSIS, RPMI media” value in assay [6] is listed as 1 (1: ≥20 mg/L). For the same compound, the “MIC grade, C. TROPICALIS, RPMI media” value in assay [7] is 1 (1: ≥20 mg/L). Further, in assay [8], the “MIC grade, C. ALBICANS, RPMI media” value is 1 (1: ≥20 mg/L). Further, in [9], the “MIC grade, A. FUMIGATUS, YAG media” value is recorded as 2 (2: 1-5 mg/L).

For the compound `CCOC(=O)CCCCCC1=NN=C(N)SC1`, the “MIC grade, A. NIGER, YAG media” value in [1] is 4 (4: <0.2 mg/L). For the same compound, the “MIC grade, A. FLAVUS, YAG media” value in assay [2] was 4 (4: <0.2 mg/L). Besides, in assay [3], the “MIC grade, A. TERREUS, YAG media” value was 4 (4: <0.2 mg/L). Moreover, the “MIC grade, A. TERREUS 49, YAG media” value in assay [4] is 4 (4: <0.2 mg/L). Moreover, in assay [5], the “MIC grade, A. FUMIGATUS 210, YAG media” value is listed as 4 (4: <0.2 mg/L). Also, the “MIC grade, C. PARAPSILOSIS, RPMI media” value in [6] is given as 4 (4: <1 mg/L). For the same compound, the “MIC grade, C. TROPICALIS, RPMI media” value in assay [7] is listed as 3 (3: 1-5 mg/L). Also, the “MIC grade, C. ALBICANS, RPMI media” value in [8] was 4 (4: <1 mg/L). Also, in [9], the “MIC grade, A. FUMIGATUS, YAG media” value was 3 (3: 0.2-1 mg/L).

The values are drawn from patent US20180201592A1, “2-AMINO-1,3,4-THIADIAZINE AND 2-AMINO-1,3,4-OXADIAZINE BASED ANTIFUNGAL AGENTS” (F2G Limited, priority 2015, published 2018).
